Data set [1] deals with T1, Peroxisome proliferator-activated receptor gamma (Homo sapiens, UniProt P37231).
T1 sequence (P37231 whole entry): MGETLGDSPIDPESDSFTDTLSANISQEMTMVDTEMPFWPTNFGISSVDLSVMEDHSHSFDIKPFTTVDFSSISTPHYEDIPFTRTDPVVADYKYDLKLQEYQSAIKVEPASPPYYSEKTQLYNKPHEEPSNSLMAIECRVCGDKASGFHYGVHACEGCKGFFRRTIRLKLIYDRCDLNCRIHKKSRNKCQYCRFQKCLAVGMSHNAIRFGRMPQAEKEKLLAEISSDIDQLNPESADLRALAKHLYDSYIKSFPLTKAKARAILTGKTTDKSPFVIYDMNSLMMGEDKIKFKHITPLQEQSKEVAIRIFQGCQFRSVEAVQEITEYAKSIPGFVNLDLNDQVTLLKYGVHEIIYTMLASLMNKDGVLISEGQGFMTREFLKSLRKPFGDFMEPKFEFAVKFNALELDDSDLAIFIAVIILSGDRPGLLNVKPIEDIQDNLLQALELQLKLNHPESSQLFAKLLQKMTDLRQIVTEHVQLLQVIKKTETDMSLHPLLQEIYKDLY
In words: Agonist activity at human PPARgamma measured by dual luciferase reporter gene assay. (In general: In a reporter assay the amount or activity of a reporter protein is the signal.)

The target in data set [2] is T2, Peroxisome proliferator-activated receptor delta (Homo sapiens, UniProt Q03181).
T2 sequence (Q03181 whole entry): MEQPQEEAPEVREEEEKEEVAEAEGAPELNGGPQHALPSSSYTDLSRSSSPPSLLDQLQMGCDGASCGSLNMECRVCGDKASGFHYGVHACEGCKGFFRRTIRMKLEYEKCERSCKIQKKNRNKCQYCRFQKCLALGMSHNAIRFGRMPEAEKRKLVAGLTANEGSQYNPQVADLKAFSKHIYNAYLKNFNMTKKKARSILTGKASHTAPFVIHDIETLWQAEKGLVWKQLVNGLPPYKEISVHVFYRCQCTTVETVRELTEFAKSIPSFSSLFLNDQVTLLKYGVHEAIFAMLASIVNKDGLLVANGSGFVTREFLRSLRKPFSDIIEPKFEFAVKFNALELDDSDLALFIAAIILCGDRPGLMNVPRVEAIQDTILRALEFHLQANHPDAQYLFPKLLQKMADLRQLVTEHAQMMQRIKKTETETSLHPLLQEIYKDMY
In words: Agonist activity at human PPARdelta measured by dual luciferase reporter gene assay.

Data set [3] is described as follows: Half-life in rat liver microsomes in presence of NADPH measured by LC/MS analysis. The format is ADME, Microsome. In general terms: Liver microsomes are a subcellular fraction often used to study metabolism.
The subject of data set [4] is Mus musculus. The data set can be described thus: Anti-NASH activity in high-fat/high-sugar diet and CCl4-induced nonalcoholic steatohepatitis male C57BL/6 mouse assessed as decrease in serum TG level at 100 mg/kg, po administered for 4 weeks. Type of data set: functional, organism-based.
Data set [5] concerns Mus musculus. In words: Anti-NASH activity in high-fat/high-sugar diet and CCl4-induced nonalcoholic steatohepatitis male C57BL/6 mouse assessed as decrease in hepatic TC level at 100 mg/kg, po administered for 4 weeks. Type of data set: functional, organism-based.
Data set [6] relates to Mus musculus. In words: Anti-NASH activity in high-fat/high-sugar diet and CCl4-induced nonalcoholic steatohepatitis male C57BL/6 mouse assessed as decrease in hepatic TG level at 100 mg/kg, po administered for 4 weeks. The format is functional, organism-based.
Data set [7] deals with Mus musculus. In words: Anti-NASH activity in high-fat/high-sugar diet and CCl4-induced nonalcoholic steatohepatitis male C57BL/6 mouse assessed as decrease in lobular inflammation score at 100 mg/kg, po administered for 4 weeks. Type of data set: functional, organism-based.
The subject of data set [8] is Mus musculus. In words: Anti-NASH activity in high-fat/high-sugar diet and CCl4-induced nonalcoholic steatohepatitis male C57BL/6 mouse assessed as decrease in F4/80 expression at 100 mg/kg, po administered for 4 weeks. The format is functional, organism-based.
Data set [9] concerns Mus musculus. The data set can be described thus: Protection against liver fibrosis in high-fat/high-sugar diet and CCl4-induced nonalcoholic steatohepatitis male C57BL/6 mouse assessed as decrease in alpha-SMA expression in liver at 100 mg/kg, po administered for 4 weeks. Type of data set: functional, organism-based.
In data set [10] the test system is Mus musculus. In words: Anti-NASH activity in high-fat/high-sugar diet and CCl4-induced nonalcoholic steatohepatitis male C57BL/6 mouse assessed as decrease in ACC mRNA expression at 100 mg/kg, po administered for 4 weeks. Type of data set: functional, organism-based.
Data set [11] concerns Mus musculus. The data set can be described thus: Anti-NASH activity in high-fat/high-sugar diet and CCl4-induced nonalcoholic steatohepatitis male C57BL/6 mouse assessed as decrease in SCD1 mRNA expression at 100 mg/kg, po administered for 4 weeks. The format is functional, organism-based.
The test system of data set [12] is Mus musculus. The data set can be described thus: Anti-NASH activity in high-fat/high-sugar diet and CCl4-induced nonalcoholic steatohepatitis male C57BL/6 mouse assessed as decrease in FAS mRNA expression at 100 mg/kg, po administered for 4 weeks. Type of data set: functional, organism-based.
Data set [13] relates to Mus musculus. In words: Anti-inflammatory activity in high-fat/high-sugar diet and CCl4-induced nonalcoholic steatohepatitis male C57BL/6 mouse assessed as decrease in IL-6 mRNA expression at 100 mg/kg, po administered for 4 weeks. Type of data set: functional, organism-based.
Data set [14] deals with Mus musculus. The data set can be described thus: Anti-inflammatory activity in high-fat/high-sugar diet and CCl4-induced nonalcoholic steatohepatitis male C57BL/6 mouse assessed as decrease in IL-1beta mRNA expression at 100 mg/kg, po administered for 4 weeks. Type of data set: functional, organism-based.
Data set [15] relates to Mus musculus. The data set can be described thus: Anti-fibrotic activity in high-fat/high-sugar diet and CCl4-induced nonalcoholic steatohepatitis male C57BL/6 mouse assessed as decrease in TIMP-1 mRNA expression at 100 mg/kg, po administered for 4 weeks. Type of data set: functional, organism-based.
Data set [16] has as its system Mus musculus. The data set can be described thus: Anti-fibrotic activity in high-fat/high-sugar diet and CCl4-induced nonalcoholic steatohepatitis male C57BL/6 mouse assessed as decrease in COL1A1 mRNA expression at 100 mg/kg, po administered for 4 weeks. The format is functional, organism-based.
In data set [17] the test system is Mus musculus. The data set can be described thus: Antioxidant activity in high-fat/high-sugar diet and CCl4-induced nonalcoholic steatohepatitis male C57BL/6 mouse assessed as increase in GPX1 mRNA expression at 100 mg/kg, po administered for 4 weeks. The format is functional, organism-based.
Data set [18] can be described thus: Acute toxicity in ICR mouse assessed as change in serum ALB level at 500 mg/kg, IG. The format is organism-based. Particulars: in vivo, po.
Data set [19] is described as follows: Acute toxicity in ICR mouse assessed as change in serum ALT level at 500 mg/kg, IG. The format is organism-based. Particulars: in vivo, po.
Data set [20] in a line: Acute toxicity in ICR mouse assessed as change in serum TBIL level at 500 mg/kg, IG. Type of data set: organism-based. Particulars: in vivo, po.
A short description of data set [21]: Acute toxicity in ICR mouse assessed as change in serum DBIL level at 500 mg/kg, IG. The format is organism-based. Particulars: in vivo, po.
The nature of data set [22]: Acute toxicity in ICR mouse assessed as change in serum creatinine level at 500 mg/kg, IG. The format is organism-based. Conditions: in vivo, po.
A short description of data set [23]: Acute toxicity in ICR mouse assessed as change in serum CKMB level at 500 mg/kg, IG. Conditions: in vivo, po. The format is organism-based.

This passage reports EC50, half-life and Activity results from ChEMBL document CHEMBL5154671 (Eur J Med Chem, 2022).

Activity calls are given as the source filed them. The calls are words filed in the database; no cut-off is given here.

One may read the EC50 as the concentration at which the effect is half-maximal. Broadly, the half-life is the time in which the quantity being followed falls by half.

Consider `COc1ccc(/C=C/c2cc(OC)cc(OCc3ccc(OCC(=O)O)c(F)c3)c2)cc1`, for which the EC50 in data set [1] stood at 28.5 µM; in [2], 4.8 µM. For the same compound, the half-life in data set [3] is 51.2 min. Further, the outcome in [4], in [5], in data set [6], in data set [7], in [8] and in data set [9] was Active. Also, the result in [10], in [11], in data set [12], in [13], in data set [14] and in data set [15] was Active. Further, the outcome in data set [16] and in data set [17] was Active. The Activity result in data set [18], in [19], in data set [20], in [21], in [22] and in data set [23] was “Non-Toxic” throughout.
